In ChEMBL document CHEMBL4402510, “Caprazamycins: Promising lead structures acting on a novel antibacterial target MraY” (Eur J Med Chem, 2019):
Values after ≈ are worked out from the molar mass of the structure shown.

Tests used:
[1] = system: Haemophilus influenzae; assay: Antibacterial activity against Haemophilus influenzae ATCC 10211; format: functional
[2] = system: Haemophilus influenzae; assay: Antibacterial activity against Haemophilus influenzae after 20 hrs by NCCLS-based two-fold broth dilution method; format: functional
[3] = system: Enterococcus faecalis; assay: Antibacterial activity against t Enterococcus faecalis after 20 hrs by NCCLS-based two-fold broth dilution method; format: functional; settings: read-out: MIC
[4] = system: Enterococcus faecalis; assay: Antibacterial activity against t Enterococcus faecalis VRE after 20 hrs by NCCLS-based two-fold broth dilution method; format: functional; settings: read-out: MIC
[5] = system: Mycolicibacterium smegmatis; assay: Antibacterial activity against Mycobacterium smegmatis; format: functional
[6] = system: Mycobacterium avium; assay: Antibacterial activity against Mycobacterium avium; format: functional
[7] = system: Mycobacterium intracellulare; assay: Antibacterial activity against Mycobacterium intracellulare; format: functional
[8] = system: Mycobacterium tuberculosis; assay: Antibacterial activity against Mycobacterium tuberculosis; format: functional
[9] = system: Acinetobacter baumannii; assay: Antibacterial activity against Acinetobacter baumannii ATCC 19606; format: functional; settings: ATCC 19606 = CIP 70.34 = JCM 6841
[10] = system: Enterococcus faecium; assay: Antibacterial activity against Enterococcus faecium SR7917 (VRE); format: functional
[11] = system: Pseudomonas aeruginosa; assay: Antibacterial activity against Pseudomonas aeruginosa PAO1 deltamexB; format: functional
[12] = molecular target: T1, Phospho-N-acetylmuramoyl-pentapeptide-transferase (Staphylococcus aureus, UniProt P0C1R8); assay: Inhibition of MraY in Staphylococcus aureus
T1 sequence (P0C1R8 whole entry): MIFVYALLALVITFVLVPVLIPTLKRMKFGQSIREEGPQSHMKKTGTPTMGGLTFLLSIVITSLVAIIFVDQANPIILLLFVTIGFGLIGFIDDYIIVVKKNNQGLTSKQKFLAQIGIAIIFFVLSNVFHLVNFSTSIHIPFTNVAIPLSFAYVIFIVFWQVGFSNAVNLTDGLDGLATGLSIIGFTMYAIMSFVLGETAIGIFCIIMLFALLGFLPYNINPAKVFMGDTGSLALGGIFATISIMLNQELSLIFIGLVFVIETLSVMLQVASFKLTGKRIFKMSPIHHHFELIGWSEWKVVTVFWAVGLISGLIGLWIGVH

[13] = system: Streptococcus pneumoniae; assay: Antibacterial activity against Streptococcus pneumoniae; format: functional
[14] = system: Enterococcus faecium; assay: Antibacterial activity against Enterococcus faecium ATCC 19434; format: functional
[15] = system: Staphylococcus aureus; assay: Antibacterial activity against methicillin susceptible Staphylococcus aureus ATCC 29213; format: functional
[16] = system: Enterococcus faecalis; assay: Antibacterial activity against Enterococcus faecalis ATCC 29212; format: functional
[17] = system: Pseudomonas aeruginosa; assay: Antibacterial activity against Pseudomonas aeruginosa YY165; format: functional
[18] = system: Enterococcus faecalis; assay: Antibacterial activity against Enterococcus faecalis SR7914 (VRE); format: functional
[19] = system: Staphylococcus aureus; assay: Antibacterial activity against methicillin resistant Staphylococcus aureus SR3637; format: functional
[20] = system: Escherichia coli; assay: Antibacterial activity against Escherichia coli ATCC 25922; format: functional
[21] = system: Enterococcus faecium; assay: Antibacterial activity against t Enterococcus faecium after 20 hrs by NCCLS-based two-fold broth dilution method; format: functional
[22] = system: Staphylococcus aureus; assay: Antibacterial activity against methicillin resistant Staphylococcus aureus after 20 hrs by NCCLS-based two-fold broth dilution method; format: functional; settings: read-out: MIC
[23] = system: Staphylococcus aureus; assay: Antibacterial activity against methicillin susceptible Staphylococcus aureus after 20 hrs by NCCLS-based two-fold broth dilution method; format: functional; settings: read-out: MIC
[24] = system: Pseudomonas aeruginosa; assay: Antibacterial activity against Pseudomonas aeruginosa after 20 hrs by NCCLS-based two-fold broth dilution method; format: functional
[25] = system: Escherichia coli; assay: Antibacterial activity against Escherichia coli after 20 hrs by NCCLS-based two-fold broth dilution method; format: functional
[26] = system: Enterococcus faecium; assay: Antibacterial activity against t Enterococcus faecium VRE after 20 hrs by NCCLS-based two-fold broth dilution method; format: functional; settings: read-out: MIC

| SMILES | MIC [1] [µg/mL] | MIC [2] [µg/mL] | MIC [3] [µg/mL] | MIC [4] [µg/mL] | MIC [9] [µg/mL] | MIC [10] [µg/mL] | MIC [11] [µg/mL] | IC50 [12] [mM] | MIC [13] [µg/mL] | MIC [14] [µg/mL] | MIC [15] [µg/mL] | MIC [16] [µg/mL] | MIC [17] [µg/mL] | MIC [18] [µg/mL] | MIC [19] [µg/mL] | MIC [20] [µg/mL] | also measured |
| --- | --- | --- | --- | --- | --- | --- | --- | --- | --- | --- | --- | --- | --- | --- | --- | --- | --- |
| CCCCCCCCCCCCCCCC(=O)OC[C@H]1[C@@H](C(=O)N(C)C)[C@H]([C@H]2O[C@@H](n3ccc(=O)[nH]c3=O)[C@H](O)[C@@H]2O)ON1CCCN | 1 (≈ 1.47 µM) | 1 (≈ 1.47 µM) | – | – | – | – | – | – | – | – | – | – | – | – | – | – | – |
| CCCCCCCCCCCCCCCC(=O)OC[C@@H]1[C@H](C(N)=O)[C@H]([C@H]2O[C@@H](n3ccc(=O)[nH]c3=O)[C@H](O)[C@@H]2O)ON1CCCN | – | 0.25 to 0.5 (≈ 0.382 to 0.765 µM) | 16 (≈ 24.5 µM) | 4 to 8 (≈ 6.12 to 12.2 µM) | – | – | – | – | – | – | – | – | – | – | – | – | – |
| CCCCCCCCCCC[C@@H](CC(=O)O[C@H]1CN(C)[C@@H]([C@H](O[C@@H]2O[C@H](CN)[C@@H](O)[C@H]2O)[C@H]2O[C@@H](n3ccc(=O)[nH]c3=O)[C@H](O)[C@@H]2O)C(=O)N(C)[C@@H]1C(=O)O)OC(=O)C[C@H](C)CC(=O)O[C@@H]1O[C@@H](C)[C@H](OC)[C@@H](OC)[C@H]1OC | – | – | – | – | – | – | – | – | – | – | – | – | – | – | – | – | MIC [5]: 0.39 to 1.56 µg/mL (≈ 0.349 to 1.4 µM); MIC [6]: < 0.025 µg/mL; MIC [7]: 0.78 µg/mL (≈ 0.698 µM); MIC [8]: 0.78 µg/mL (≈ 0.698 µM) |
| CC(=O)N[C@H]1CCN[C@H]([C@@H](O[C@@H]2O[C@H](CN)[C@@H](O)[C@H]2O)[C@H]2O[C@@H](n3ccc(=O)[nH]c3=O)[C@H](O)[C@@H]2O)C1 | > 64 | – | – | – | > 64 | > 64 | > 64 | > 4.2 | > 64 | > 64 | > 64 | > 64 | > 64 | > 64 | > 64 | > 64 | – |
| CCCCCCCCCCCCCCCC(=O)N[C@H]1CCN[C@H]([C@H](O[C@@H]2O[C@H](CN)[C@@H](O)[C@H]2O)[C@H]2O[C@@H](n3ccc(=O)[nH]c3=O)[C@H](O)[C@@H]2O)C1 | 32 (≈ 45 µM) | 32 (≈ 45 µM) | 8 (≈ 11.2 µM) | 8 (≈ 11.2 µM) | > 64 | 4 (≈ 5.62 µM) | > 64 | – | > 64 | 8 (≈ 11.2 µM) | 8 (≈ 11.2 µM) | 8 (≈ 11.2 µM) | 32 (≈ 45 µM) | 8 (≈ 11.2 µM) | 8 (≈ 11.2 µM) | 16 (≈ 22.5 µM) | MIC [21]: 8 µg/mL (≈ 11.2 µM); MIC [22]: 8 µg/mL (≈ 11.2 µM); MIC [23]: 8 µg/mL (≈ 11.2 µM); MIC [24]: 32 µg/mL (≈ 45 µM); MIC [25]: 16 µg/mL (≈ 22.5 µM); MIC [26]: 4 µg/mL (≈ 5.62 µM) |
| CC(=O)N[C@H]1CCN[C@H]([C@H](O[C@@H]2O[C@H](CN)[C@@H](O)[C@H]2O)[C@H]2O[C@@H](n3ccc(=O)[nH]c3=O)[C@H](O)[C@@H]2O)C1 | > 64 | – | – | – | > 64 | > 64 | > 64 | 4 | > 64 | > 64 | > 64 | > 64 | > 64 | > 64 | > 64 | > 64 | – |
| CCCCCCCCCCCCCCCC(=O)N[C@@H]1CCN[C@@H]([C@@H](O[C@@H]2O[C@H](CN)[C@@H](O)[C@H]2O)[C@H]2O[C@@H](n3ccc(=O)[nH]c3=O)[C@H](O)[C@@H]2O)C1 | > 64 | – | 32 (≈ 45 µM) | 32 (≈ 45 µM) | > 64 | 16 (≈ 22.5 µM) | > 64 | > 2.7 | 64 (≈ 89.9 µM) | 32 (≈ 45 µM) | 16 (≈ 22.5 µM) | 32 (≈ 45 µM) | > 64 | 32 (≈ 45 µM) | 32 (≈ 45 µM) | 32 (≈ 45 µM) | MIC [21]: 32 µg/mL (≈ 45 µM); MIC [22]: 32 µg/mL (≈ 45 µM); MIC [23]: 16 µg/mL (≈ 22.5 µM); MIC [25]: 32 µg/mL (≈ 45 µM); MIC [26]: 16 µg/mL (≈ 22.5 µM) |
